Assay results: patent US12559529B2, “NPY2 receptor agonists” (Boehringer Ingelheim International GmbH, priority 2019, dated 2026)

Legend:
human NPY5 receptor = target: T1, human NPY5 receptor (Homo sapiens, UniProt Q15761); experiment: HTRF cAMP Gi assay, hY5R
T1 sequence (Q15761 1-445): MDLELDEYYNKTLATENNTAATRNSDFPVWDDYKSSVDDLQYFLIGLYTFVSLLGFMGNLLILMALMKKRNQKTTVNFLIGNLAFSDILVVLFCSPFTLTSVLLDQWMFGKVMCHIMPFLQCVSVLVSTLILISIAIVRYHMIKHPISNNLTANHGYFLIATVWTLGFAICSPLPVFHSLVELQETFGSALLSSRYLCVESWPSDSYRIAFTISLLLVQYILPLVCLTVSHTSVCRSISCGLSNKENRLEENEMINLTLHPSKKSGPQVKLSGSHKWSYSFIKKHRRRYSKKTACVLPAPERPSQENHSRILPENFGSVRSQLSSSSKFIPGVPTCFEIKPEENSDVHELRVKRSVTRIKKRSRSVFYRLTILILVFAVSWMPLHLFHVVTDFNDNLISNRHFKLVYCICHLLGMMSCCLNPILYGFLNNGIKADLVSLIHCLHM
Source text: (§1) The Homogenous Time Resolved fluorescence (HTRF) technology optimized for Gi coupled receptors has thoroughly been described in Cisbio cAMP Gi kit manual. Briefly, the production of intracellular cAMP will generate a competition between unlabeled cAMP and exogenously added d2-cAMP for anti-cAMP antibodies conjugated to cryptate. CHO-K1 cells stably expressing the human NPY1, NPY2, NPY4 and NPY5 receptors were used with the cells brought to life from a frozen stock immediately before assay performance. 2000 cells per well were applied for all four NPY receptor subtype assays. A 384-well format was used applying a total volume of 20 μl using 5 μl cells, 2.5 μl peptide agonist, 2.5 μl forskolin and 5 μl of each of the fluorophores. […] Concentration-response evaluation of compounds was performed with 11 concentrations of agonist peptides (covering 3 decades). EC50 values were calculated by nonlinear regression using sigmoid concentration-response with variable slope.

[1] = target: T2, Human Neuropeptide Y2 Receptor (Homo sapiens, UniProt P49146); experiment: Activity (RLB) after incubation in solutions at different pH values; format: binding; details: apparent Ki of filtrate after 2 h in buffer
T2 construct: purchased CHEMICON HTS066M
T2 sequence (P49146 1-381): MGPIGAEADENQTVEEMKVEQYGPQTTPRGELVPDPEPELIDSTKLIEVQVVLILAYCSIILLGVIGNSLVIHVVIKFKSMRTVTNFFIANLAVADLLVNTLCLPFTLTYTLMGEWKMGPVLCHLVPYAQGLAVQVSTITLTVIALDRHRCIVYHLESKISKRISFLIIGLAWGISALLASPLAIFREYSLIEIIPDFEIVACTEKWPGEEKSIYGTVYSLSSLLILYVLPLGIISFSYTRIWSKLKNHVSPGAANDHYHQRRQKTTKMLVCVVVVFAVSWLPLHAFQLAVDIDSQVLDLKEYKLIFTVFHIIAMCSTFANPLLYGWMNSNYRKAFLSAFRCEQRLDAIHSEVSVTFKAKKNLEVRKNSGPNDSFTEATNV

human NPY1 receptor = target: T3, human NPY1 receptor (Homo sapiens, UniProt P25929); experiment: HTRF cAMP Gi assay, hY1R; format: cell-based; details: Table 4; CHO-K1 cells
T3 construct: expressed in transfected cells; host or cells: CHO-K1
T3 sequence (P25929 1-384): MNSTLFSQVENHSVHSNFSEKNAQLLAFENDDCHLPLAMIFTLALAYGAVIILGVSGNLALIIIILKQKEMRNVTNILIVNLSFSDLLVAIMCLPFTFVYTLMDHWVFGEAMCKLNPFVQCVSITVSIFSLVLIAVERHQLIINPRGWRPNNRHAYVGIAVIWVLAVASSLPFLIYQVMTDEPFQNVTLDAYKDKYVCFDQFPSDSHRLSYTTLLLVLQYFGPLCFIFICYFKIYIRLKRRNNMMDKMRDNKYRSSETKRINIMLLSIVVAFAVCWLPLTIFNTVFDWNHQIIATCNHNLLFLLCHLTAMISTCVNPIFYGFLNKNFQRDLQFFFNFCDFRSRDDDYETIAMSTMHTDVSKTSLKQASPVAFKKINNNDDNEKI

human NPY2 receptor = target: T4, human NPY2 receptor (Homo sapiens, UniProt P49146); experiment: HTRF cAMP Gi assay, hY2R
T4 sequence (P49146 1-381): T2 sequence (P49146 1-381)
Procedure: Briefly, the production of intracellular cAMP will generate a competition between unlabeled cAMP and exogenously added d2-cAMP for anti-cAMP antibodies conjugated to cryptate. CHO-K1 cells stably expressing the human NPY1, NPY2, NPY4 and NPY5 receptors were used with the cells brought to life from a frozen stock immediately before assay performance. 2000 cells per well were applied for all four NPY receptor subtype assays. A 384-well format was used applying a total volume of 20 μl using 5 μl cells, 2.5 μl peptide agonist, 2.5 μl forskolin and 5 μl of each of the fluorophores. […] Concentration-response evaluation of compounds was performed with 11 concentrations of agonist peptides (covering 3 decades). EC50 values were calculated by nonlinear regression using sigmoid concentration-response with variable slope.

[2] = target: T2, Human Neuropeptide Y2 Receptor; experiment: Radioligand binding competition assay (RLB)
Procedure, shortened: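 Competition binding at commercial human NPY Y2 membrane preparations, 0.5 μg protein per well, 2 h incubation at room temperature. Bound and free ligand were separated on GF/C filters and counted; IC50 was fitted by nonlinear regression.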

human NPY4 receptor = target: T5, human NPY4 receptor (Homo sapiens, UniProt P50391); experiment: HTRF cAMP Gi assay, hY4R; format: cell-based; details: Table 4; CHO-K1 cells
T5 construct: expressed in transfected cells; host or cells: CHO-K1
Source text: as §1

Solubility determination = format: physicochemical
Procedure: The peptide was dissolved by shaking the filter unit horizontally at 600 rpm for 2 hours at room temperature. […] Both the control and sample were analysed with reversed phase chromatography. The area under the peak of the sample was compared to the control and the solubility was calculated based on that ratio. The pH was measured and recorded for each sample.

T5 sequence (P50391 whole entry): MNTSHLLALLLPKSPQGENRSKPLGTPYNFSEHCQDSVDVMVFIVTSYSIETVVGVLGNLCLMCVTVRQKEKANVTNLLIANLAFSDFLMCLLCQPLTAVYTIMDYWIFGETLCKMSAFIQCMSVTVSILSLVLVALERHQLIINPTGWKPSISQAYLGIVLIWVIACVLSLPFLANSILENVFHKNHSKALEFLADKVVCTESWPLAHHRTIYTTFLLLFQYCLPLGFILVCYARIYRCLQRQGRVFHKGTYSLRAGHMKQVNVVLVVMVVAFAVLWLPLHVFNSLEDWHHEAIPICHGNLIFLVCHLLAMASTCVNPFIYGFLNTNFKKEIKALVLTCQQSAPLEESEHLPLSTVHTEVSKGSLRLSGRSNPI

SMILES | EC50 (human NPY5 receptor) [nM] | Ki ([1]; pH6.1-6.2, assumed 10 mg/ml, read-out: RLB 6 (pH6.1-6.2)) [nM] | Ki ([1]; pH7.1-7.2, assumed 10 mg/ml, read-out: RLB 7 (pH7.1-7.2)) [nM] | Ki ([1]; pH8.1-8.2, assumed 10 mg/ml, read-out: RLB 8 (pH8.1-8.2)) [nM] | EC50 (human NPY1 receptor) [nM] | EC50 (human NPY2 receptor) [nM] | Ki ([2]; Table 3, human 125I-PYY (1-36) 0.02 nM, Y2 receptor membranes, read-out: Ki) [nM] | Ki ([2]; Table 8, from DMSO stock, read-out: hY2R RLB Ki (nM) DMSO) [nM] | EC50 (human NPY4 receptor) [nM] | [final pH] of Sol pH 6 sample (Solubility determination; pH 6) | [final pH] of Sol pH 7 sample (Solubility determination; pH 7) | Ki ([2]; Table 2, read-out: hY2 RLB (nM) (Ex. 1))
CC(C)CC(=O)N[C@@H](C)C(=O)N1CCC[C@H]1C(=O)N[C@@H](C)C(=O)N[C@@H](CCCCNC(=O)COCCOCCNC(=O)COCCOCCNC(=O)CC[C@H](NC(=O)CCCCCCCCCCCCCCCCC(=O)O)C(=O)O)C(=O)N1CCC[C@H]1C(=O)N[C@@H](CCC(=O)O)C(=O)N[C@@H](CCC(=O)O)C(=O)N[C@@H](CC(=O)O)C(=O)N[C@@H](C)C(=O)N[C@H](C(=O)N1CCC[C@H]1C(=O)N[C@@H](CCC(=O)O)C(=O)N[C@@H](CCC(=O)O)C(=O)N[C@@H](CC(C)C)C(=O)N[C@@H](CCC(N)=O)C(=O)N[C@@H](CCCNC(=N)N)C(=O)N[C@@H](Cc1ccc(O)cc1)C(=O)N[C@@H](Cc1ccc(O)cc1)C(=O)N[C@H](C(=O)N[C@@H](CO)C(=O)N[C@@H](CC(C)C)C(=O)N[C@@H](CCCNC(=N)N)C(=O)N[C@@H](Cc1c[nH]cn1)C(=O)N[C@@H](Cc1ccc(O)cc1)C(=O)N[C@@H](Cc1ccc(O)cc1)C(=O)N[C@@H](CC(N)=O)C(=O)N[C@@H](Cc1c[nH]c2ccccc12)C(=O)N[C@@H](CC(C)C)C(=O)N[C@H](C(=O)N[C@@H](CCCNC(=N)N)C(=O)N[C@@H](CCC(N)=O)C(=O)N[C@@H](CCCNC(=N)N)C(=O)N[C@@H](Cc1ccc(O)cc1)C(N)=O)[C@@H](C)O)C(C)C)[C@@H](C)O [Compound 106, N{alpha-4}-(3-methylbutanoyl)-N{epsilon-7}-[2-(2-{2-[2-(2-{2-[(4S)-4-carboxy-4-(17-carboxyheptadecanamido)butanamido]ethoxy}ethoxy)acetamido]ethoxy}ethoxy)acetamido]-[4A,6A,7K,9E,13T,18Q,22V,28Y,30W,31L]hPYY (4-36)] | > 5000 | 7.7 | 9.3 | 7.5 | > 5000 | 0.173 | 0.66 | 6 | > 5000 | – | – | –
CC(C)CC(=O)N[C@@H](CCCNC(=N)N)C(=O)N1CCC[C@H]1C(=O)N[C@@H](CCC(=O)O)C(=O)N[C@@H](CCCCNC(=O)COCCOCCNC(=O)COCCOCCNC(=O)CC[C@H](NC(=O)CCCCCCCCCCCCCCCCC(=O)O)C(=O)O)C(=O)N1CCC[C@H]1C(=O)NCC(=O)N[C@@H](CCC(=O)O)C(=O)N[C@@H](CC(=O)O)C(=O)N[C@@H](C)C(=O)N[C@@H](CO)C(=O)N1CCC[C@H]1C(=O)N[C@@H](CCC(=O)O)C(=O)N[C@@H](CCC(=O)O)C(=O)N[C@@H](CC(C)C)C(=O)N[C@@H](CCC(N)=O)C(=O)N[C@@H](CCCNC(=N)N)C(=O)N[C@@H](Cc1ccc(O)cc1)C(=O)N[C@@H](Cc1ccc(O)cc1)C(=O)N[C@H](C(=O)N[C@@H](CO)C(=O)N[C@@H](CC(C)C)C(=O)N[C@@H](CCCNC(=N)N)C(=O)N[C@@H](C)C(=O)N[C@@H](Cc1ccc(O)cc1)C(=O)N[C@@H](Cc1ccc(O)cc1)C(=O)N[C@@H](CC(N)=O)C(=O)N[C@@H](Cc1c[nH]c2ccccc12)C(=O)N[C@@H](CC(C)C)C(=O)N[C@H](C(=O)N[C@@H](CCCNC(=N)N)C(=O)N[C@@H](CCC(N)=O)C(=O)N[C@@H](CCCNC(=N)N)C(=O)N[C@@H](Cc1ccc(O)cc1)C(N)=O)[C@@H](C)O)C(C)C [Ref. 3, reference compound] | – | – | – | – | – | 0.375 | – | – | – | [6.0] | [6.7] | 1.69
